Patent publication US9629918B2, “Folate receptor alpha binding ligands” (PURDUE RESEARCH FOUNDATION, priority 2012, dated 2017)

What was measured:
FR-α positive KB cells [1] = target: T1, FR-α positive KB cells (Homo sapiens, UniProt P15328); test: Flow cytometry analysis of dye conjugate binding to KB cells; type: cell-based; conditions: 100 nM, 1 h at 37° C
T1 construct: KB cells, a human nasopharyngeal cancer cell line known to over-express FR-α; host or cells: KB cells
Description: (§1) KB cells were allowed to form monolayers in a T75 falcon flask for 48 hours in folate-deficient RPMI 1640 culture medium (FDRPMI). The confluent cells were trypsinized and 1×10^6 cells were transferred into each Eppendorf tube and centrifuged. Spent medium was removed and the pelleted cells were resuspended in fresh medium containing either DMTHF-DyLight™ 680 conjugate (100 nM) or folate-DyLight™ 680 conjugate (100 nM), either in the presence or absence of 100-fold molar excess of free folic acid. After incubation for 1 h at 37° C., the cells were washed 3 times with PBS (0.5 ml) and re-suspended in fresh PBS (0.4 ml). Bound fluorescence was analyzed using a flow cytometer (Cytomics F500; Beckman Coulter).

[2] = target: T2, FR-β positive rat peritoneal macrophages (Rattus norvegicus, UniProt D4A4S5); test: Flow cytometry analysis of dye conjugate binding to rat peritoneal macrophages; type: cell-based; conditions: 100 nM, 1 h at 37° C
T2 construct: from tissue; host or cells: CD11b+ peritoneal macrophages from Lewis rats
Description: as §1
For similar analysis of rat peritoneal macrophages, experimental adjuvant-induced arthritis was induced in Lewis rats according to a previously reported procedure. After 25 days of arthritis induction, the rats were sacrificed by CO2 asphyxiation and peritoneal macrophages were harvested by injecting 60 mL PBS into the peritoneal cavity, and after brief massage of the abdomen, removing the cells using the injection syringe. Peritoneal cells were transferred to Eppendorf tubes, washed and stained as described above, except CD11b+ macrophages that were identified by co-staining with anti-CD 11b-PE (phycoerythrin-labeled antibody to CD11b).

[3] = target: T3, FR-β positive human peripheral blood monocytes (Homo sapiens, UniProt P14207); test: Flow cytometry analysis of human peripheral blood monocytes; type: cell-based; conditions: 100 nM, 1 h at 37° C
T3 construct: Human peripheral blood monocytes were isolated from whole human blood by a known procedures; from tissue; host or cells: human peripheral blood mononuclear cells from healthy volunteers (CD11b+ monocytes)
Description: Human peripheral blood monocytes were isolated from whole human blood by a known procedures. Briefly, whole human blood in anticoagulant was collected from healthy volunteers following informed consent and the mononuclear cells were separated by Ficoll-Paque centrifugation. Cells were re-suspended in Eppendorf tubes in FDRPMI medium containing either DMTHF-Oregon Green™ 488 (100 nM) or folate-Oregon Green™ 488 (100 nM) plus CD 11b Tricolor to label human monocytes. For competition studies 100-fold molar excess of free folic acid was included in the suspension. After incubation for 1 h at 37° C., the cells were washed 3 times with PBS (0.5 ml) and re-suspended in fresh PBS (0.4 ml). Bound fluorescence was analyzed by flow cytometry as described above.

KB cells = test: In vitro cytotoxicity assay ([^3H]-thymidine incorporation) in KB cells; type: cell-based, human; conditions: for IC50: 2 h pulse, additional 66 h incubation
Description: The in vitro toxicity of DMTHF-EC-119-TubH, compound 6a, (See FIG. 15) was analyzed in KB cells which were pulsed for 2 h with increasing concentrations of DMTHF-EC-119-TubH in the presence or absence of 100 μM folic acid. After washing to remove unbound conjugate, cells were incubated for an additional 66 h in fresh medium before addition of tritiated thymidine.
(§2) KB, RAW or IGROV cells were seeded in 24-well (100,000 cells/well) Falcon plates and allowed to form monolayers overnight. Spent medium was then replaced with fresh medium (0.5 mL) containing increasing concentrations of drug conjugate in the presence or absence of excess folic acid, and cells were incubated for an additional 2 h at 37° C. Cells were washed 3× with fresh medium (0.5 mL) and incubated in fresh medium (0.5 mL) for another 66 h at 37° C. Spent medium in each well was replaced with fresh medium (0.5 mL) containing [^3H]-thymidine ([…]) and the cells were incubated for additional 4 h at 37° C. to allow [^3H]-thymidine incorporation. Cells were then rinsed with medium (3×0.5 mL) and treated with 5% trichloroacetic acid (0.5 mL) for 10 min at room temperature. After replacing trichloroacetic acid with 0.25 N NaOH (0.5 mL), cells were transferred to individual scintillation vials containing Ecolume scintillation cocktail (3.0 mL) and counted in a liquid scintillation counter. IC50 values were calculated by plotting %[^3H]-thymidine incorporation versus log concentration of DMTHF-EC-119-drug conjugate in GraphPad Prism 4.

RAW 264.7 cells = test: In vitro cytotoxicity assay ([^3H]-thymidine incorporation) in RAW 264.7 cells; type: cell-based; conditions: murine macrophage cell line
Description: as §2

IGROV cells = test: In vitro cytotoxicity assay ([^3H]-thymidine incorporation) in IGROV cells; type: cell-based, human
Description: as §2

FR-α positive KB cells [4] = target: T1, FR-α positive KB cells; test: Binding affinity of ^99mTc conjugates for KB cells (gamma counting)
Description: For evaluation of its affinity for FR-α, increasing concentrations of ^99mTc-DMTHF-chelate were incubated with KB cells, a human nasopharyngeal cancer cell line known to over-express FR-α. The level of bound radioactivity was analyzed using a gamma counter.
KB or CHO-β cells (100,000 cells/well in 500 μl) were plated into 24 well Falcon plates and allowed to form adherent monolayers (ca. 70% confluent) overnight. […] Cells were washed with PBS (3×1.0 mL), after which 0.25 M aqueous NaOH (0.5 ml) was added to dissolve the cells. After 10 minutes incubation, 450 μl from each well were transferred polypropylene tubes and counted for radioactivity in a γ counter (Packard Instrument Company). The binding affinity, Kd, was calculated using GraphPad Prism 4 by plotting cell bound radioactivity versus the concentration of radiotracer added.

xenograft KB tumor = test: Optical imaging of athymic nude mice bearing KB tumor; type: in vivo, mouse; conditions: athymic nude mice with KB tumor, 4 h after administration
Description: (§3) Radioimages of murine models of human diseases were acquired with a Kodak Imaging Station coupled to a CCD camera operated with Kodak Molecular Imaging Software v 4.0 (Carestream Molecular Imaging). Abdomens were generally shielded with a lead plate in order to mask radioactivity emitted from the kidneys and bladder. The parameters used for radioimaging were: acquisition time=2 min, f-stop=4, focal plane=7, FOV=200, binning=4. For white light imaging, the parameters were: acquisition time=0.05 s, f-stop=11, focal plane=7, FOV=200, with no binning. For fluorescent imaging, abdomens were shielded with black construction paper to block fluorescence emitted from the kidneys and bladder. The parameters used were: acquisition time=30 s, excitation filter of λ=625 nm, emission filter of λ=700 nm, f-stop=4, focal plane=7, FOV=200, and binning=4.
Animals bearing tumors and/or inflammatory diseases were prepared as described above and injected intraperitoneally with DMTHF-DyLight™ 680 or folate-DyLight™ 680 conjugate (4 nmol in 100 μl of PBS). […] To evaluate accumulation of test compounds in specific organs/tissues, animals were dissected and organs/tissues of interest were excised and selected regions of interest were analyzed in the Kodak Imaging Station.

[5] = test system: M109 tumor and DSS induced ulcerative colitis; test: Optical imaging of Balb/C mice bearing M109 tumor with DSS induced ulcerative colitis; type: in vivo, mouse; conditions: 4 h after administration
Description: as §3
Six week old female Balb/c mice were purchased from Harlan laboratories and maintained on a folate deficient diet (Harlan-Teklad, Wis.). After one week of acclimation, the mice were inoculated subcutaneously on the shoulder with 0.1 mL of M109 tumor cell suspension (1×10^6 cells). Subcutaneous tumor growth was monitored daily and on day 10 post tumor inoculation, 4% dextran sulfate sodium was added to their drinking water for 6 days to induce experimental ulcerative colitis. […]

T1 sequence (P15328 25-234): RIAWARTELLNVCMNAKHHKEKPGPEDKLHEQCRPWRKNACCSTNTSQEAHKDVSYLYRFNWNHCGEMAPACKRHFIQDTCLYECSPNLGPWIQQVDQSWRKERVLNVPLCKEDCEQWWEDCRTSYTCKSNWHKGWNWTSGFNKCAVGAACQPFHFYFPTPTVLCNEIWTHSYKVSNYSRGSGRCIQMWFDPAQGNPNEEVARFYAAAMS
T3 sequence (P14207 17-230): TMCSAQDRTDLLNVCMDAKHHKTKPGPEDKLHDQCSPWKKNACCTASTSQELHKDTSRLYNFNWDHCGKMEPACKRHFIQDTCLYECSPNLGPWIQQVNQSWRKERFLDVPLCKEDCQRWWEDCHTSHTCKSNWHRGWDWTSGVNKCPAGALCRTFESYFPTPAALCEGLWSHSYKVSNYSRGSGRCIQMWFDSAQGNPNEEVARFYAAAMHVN
T2 sequence (D4A4S5 21-252): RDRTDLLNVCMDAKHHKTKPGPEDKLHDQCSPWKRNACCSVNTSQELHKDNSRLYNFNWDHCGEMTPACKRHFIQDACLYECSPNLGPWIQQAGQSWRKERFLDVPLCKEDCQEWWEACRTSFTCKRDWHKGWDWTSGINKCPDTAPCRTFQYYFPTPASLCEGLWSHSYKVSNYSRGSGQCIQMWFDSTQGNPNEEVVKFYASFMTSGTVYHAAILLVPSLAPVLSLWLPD

Row | Molecule | binding to FR-α+ human KB cells (FR-α positive KB cells [1]) | binding to CD11b+ rat peritoneal macrophages (FR-β) [2] | shift in the CD11b+ subpopulation of human peripheral blood leucocytes (FR-β) [3] | IC50 (KB cells) [nM] | IC50 (IGROV cells) [nM] | further results
1 | CN(CC1CNc2nc(N)[nH]c(=O)c2N1C)c1ccc(C(=O)N[C@@H](CCC(=O)O)C(=O)O)cc1 (stereo partly shown) [DMTHF, N^5,N^10-dimethyl-tetrahydrofolic acid] | binds FR-α | little affinity for FR-β | lack of affinity | – | – | –
2 | CCC1(O)CC2CN(CCc3c([nH]c4ccccc34)[C@](C(=O)OC)(c3cc4c(cc3OC)N(C)[C@@H]3[C@](O)(C(=O)NNC(=O)OCCSSC[C@H](NC(=O)[C@H](CC(=O)O)NC(=O)[C@H](CC(=O)O)NC(=O)[C@H](CCCNC(=N)N)NC(=O)[C@H](CC(=O)O)NC(=O)CC[C@H](NC(=O)c5ccc(N(C)CC6CNc7nc(N)[nH]c(=O)c7N6C)cc5)C(=O)O)C(=O)O)[C@@H](O)[C@@]5(CC)C=CCN6CC[C@@]43[C@H]65)C2)C1 (stereo partly shown) [DMTHF-EC-119-DAVBH, DMTHF-EC-119-desacetylvinblastine hydrazide] | – | – | – | 42 | ~1000 | cytotoxicity in RAW 264.7 cells (RAW 264.7 cells): did not show any cytotoxicity
3 | CCCC(=O)OCN(C(=O)[C@@H](NC(=O)[C@H]1CCCCN1C)C(C)CC)[C@H](C[C@@H](OC(C)=O)c1nc(C(=O)N[C@@H](Cc2ccc(O)cc2)C[C@H](C)C(=O)NNC(=O)OCCSSC[C@H](NC(=O)[C@H](CC(=O)O)NC(=O)[C@H](CC(=O)O)NC(=O)[C@H](CCCNC(=N)N)NC(=O)[C@H](CC(=O)O)NC(=O)CC[C@H](NC(=O)c2ccc(N(C)CC3CNc4nc(N)[nH]c(=O)c4N3C)cc2)C(=O)O)C(=O)O)cs1)C(C)C (stereo partly shown) [DMTHF-EC-119-TubH, DMTHF-EC-119-tubulysin B hydrazide] | – | – | – | 41 | ~120000 | effect of excess folic acid on cytotoxicity (KB cells; 100 μM folic acid): inhibited by excess folic acid
4 | Nc1nc2ncc(CNc3ccc(C(=O)N[C@H](CCC(=O)NC[C@H](N)C(=O)N[C@@H](CC(=O)O)C(=O)N[C@@H](CS)C(=O)O)C(=O)O)cc3)nc2c(=O)[nH]1 [EC20, pteroic acid-Glu-DAP-Asp-Cys] | – | – | – | – | – | competition of KB cell binding by free folic acid (FR-α positive KB cells [4]; 100-fold molar excess of free folic acid): competed by excess free folic acid; Kd (FR-α positive KB cells [4]; KB cells, 1 hour at 37° C, cell bound radioactivity, read-out: apparent Kd): 23 nM
5 | N^5,N^10-Dimethyl Tetrahydrofolate-DyLight™ 680 [DMTHF-DyLight™ 680] | binds avidly | no measurable affinity | – | – | – | fluorescent uptake, optical imaging (xenograft KB tumor): tumor selective uptake; fluorescent uptake, ROI analysis of organs/tissues [5]: accumulated mainly in tumors
6 | N^5,N^10-Dimethyl tetrahydrofolate-Oregon Green™ 488 [DMTHF-Oregon Green] | – | – | did not | – | – | –
